Measurements: ChEMBL document CHEMBL2407091, “Effect of the orthoquinone moiety in 9,10-phenanthrenequinone on its ability to induce apoptosis in HCT-116 and HL-60 cells” (2013)
Calls of active or inactive are those of the source. The calls are words filed in the database; no cut-off is given here.

Assays:
HL-60 [1] = assay: Induction of apoptosis in human HL60 cells assessed as DNA fragmentation at 10 uM after 6 hrs by electrophoretic analysis; type: functional, cell-based
HL-60 [2] = assay: Induction of apoptosis in human HL60 cells assessed as caspase-3 activation at 10 uM after 4 hrs by FACS flow cytometric analysis; type: functional, cell-based
HL-60 [3] = assay: Cytotoxicity against human HL60 cells after 24 hrs by WST-1 assay; type: functional; conditions: HL-60, 24 h, read-out: LC50 (the source's name)
HCT-116 [4] = assay: Cytotoxicity against human HCT116 cells after 24 hrs by MTT assay; type: functional; conditions: HCT-116, 24 h, read-out: LC50 (the source's name)
HL-60 [5] = assay: Cytotoxicity against human HL60 cells at 5 uM after 24 hrs by WST-1 assay; type: functional, cell-based
HCT-116 [6] = assay: Cytotoxicity against human HCT116 cells at >2.5 uM after 24 hrs by MTT assay; type: functional, cell-based

Compound | Activity (HL-60 [1]) | Activity (HL-60 [2]) | CC50 (HL-60 [3]) [µM] | CC50 (HCT-116 [4]) [µM] | Activity (HL-60 [5]) | Activity (HCT-116 [6])
O=C1C(=O)c2cccnc2-c2ncccc21 | Active | Active | 1.57 | 0.73 | – | –
Oc1cc2ccccc2c2ccccc12 | – | – | > 10 | > 10 | – | –
O=c1c(=O)c2cccc3ccc4cccc1c4c32 | Active | Active | 3.41 | 0.86 | – | –
O=c1[nH]c2ccccc2c2ccccc12 | – | – | > 10 | > 10 | – | –
O=C1C=Cc2ccccc2C1=O [1,2-NAPHTHOQUINONE] | – | – | 7.14 | 9.2 | – | –
O=C1C(=O)c2ccccc2-c2ccccc21 [9,10-PHENANTHRENEQUINONE] | Active | Active | 3.38 | 1.43 | Active | Active
O=C1C(=O)c2cccc3cccc1c23 [ACENAPHTHOQUINONE] | – | – | > 10 | > 10 | – | –
O=C(C(=O)c1ccccc1)c1ccccc1 [BENZIL] | – | – | > 10 | > 10 | – | –
c1ccc2c(c1)CCc1ccccc1-2 [DIHYDROPHENANTHRENE] | – | – | > 10 | > 10 | – | –
c1ccc2c(c1)ccc1ccccc12 [PHENANTHRENE] | – | – | > 10 | > 10 | – | –
